From ChEMBL document CHEMBL1139159, “Synthesis and anti-HIV-1 activities of novel podophyllotoxin derivatives” (Bioorg Med Chem Lett, 2007) come the findings set out here.

Where only a bound is given, the exact number is not on record here.

For data set [1], the system named is Human immunodeficiency virus 1. As to the kind of experiment: Antiviral activity against HIV1 in C8166 cells assessed as inhibition of syncytia formation. It is filed as functional, organism-based. The settings on record: Human immunodeficiency virus 1, C8166.
A short description of data set [2]: Therapeutic index, IC50 for C8166 cells to EC50 for HIV1. The settings on record: human, read-out: Ratio IC50/EC50. The format is cell-based.
The subject of a further data set is C8166. As to the kind of experiment: Cytotoxicity against C8166 cells assessed as reduction in total cell number. The format is cell-based. The settings on record: Homo sapiens.

Turning to `COc1cc([C@@H]2c3cc4c(cc3[C@H](NC(=O)OC[C@@H]3C=C[C@H](n5cc(C)c(=O)[nH]c5=O)O3)[C@H]3COC(=O)[C@H]23)OCO4)cc(OC)c1O`, the EC50 in data set [1] was found to be 0.29 µM. For the same compound, the selectivity ratio in data set [2] was 355. In addition, in the data set with C8166, the IC50 amounted to 104 µM.

As for `COc1cc([C@@H]2c3cc4c(cc3[C@@H](NC(=O)OC[C@@H]3C=C[C@H](n5cc(C)c(=O)[nH]c5=O)O3)[C@H]3COC(=O)[C@H]23)OCO4)cc(OC)c1O`, in data set [1], the EC50 stood at 0.17 µM. Further, the selectivity ratio in data set [2] is 467. Besides, the IC50 with C8166 is 79.1 µM.

Take `COc1cc2c(cc1OC)[C@@H](NC(=O)OC[C@@H]1C=C[C@H](n3cc(C)c(=O)[nH]c3=O)O1)[C@H]1COC(=O)[C@@H]1[C@@H]2c1cc(OC)c(OC)c(OC)c1`: the EC50 in data set [1] turned out to be 4.39 µM. The selectivity ratio in data set [2] was > 67.1. For the same compound, in the data set with C8166, the half-maximal inhibitory concentration (IC50) is > 295 µM.

As to `COc1cc([C@@H]2c3cc4c(cc3[C@H](O)[C@H]3COC(=O)[C@H]23)OCO4)cc(OC)c1OC` [PODOFILOX], in data set [1], the EC50 was found to be 0.0029 µM. Moreover, in data set [2], the selectivity ratio turned out to be 53.3. Besides, in the data set on C8166, the IC50 is < 0.15 µM.

Turning to `COc1cc2c(cc1OC)[C@@H](C#N)[C@H]1COC(=O)[C@@H]1[C@@H]2c1cc(OC)c(OC)c(OC)c1`, the EC50 in data set [1] is 1.05 µM. Moreover, the selectivity ratio in data set [2] came out at 131. Further, in the data set on C8166, the IC50 was determined as 138 µM.

Regarding `COc1cc([C@@H]2c3cc4c(cc3[C@@H](NC(=O)OC[C@@H]3C=C[C@H](n5cc(C)c(=O)[nH]c5=O)O3)[C@H]3COC(=O)[C@H]23)OCO4)cc(OC)c1OC`, the EC50 in data set [1] stood at 5.46 µM. For the same compound, in data set [2], the selectivity ratio is 12.5. The IC50 in the data set with C8166 was found to be 68.2 µM.

As to `COc1cc([C@@H]2c3cc4c(cc3[C@H](NC(=O)OC[C@@H]3C=C[C@H](n5cc(C)c(=O)[nH]c5=O)O3)[C@H]3COC(=O)[C@H]23)OCO4)cc(OC)c1OC`, the EC50 in data set [1] amounted to 0.24 µM. Also, the selectivity ratio in data set [2] worked out at 14.4. The IC50 with C8166 worked out at 3.39 µM.

As to `COc1cc2c(cc1OC)[C@@H](C(=O)O)[C@H]1COC(=O)[C@@H]1[C@@H]2c1cc(OC)c(OC)c(OC)c1`, in data set [1], the EC50 was determined as 46.9 µM. For the same compound, the selectivity ratio in data set [2] was > 9.31. In addition, the IC50 with C8166 was > 437 µM.

In the case of `Cc1cn([C@H]2C[C@H](N=[N+]=N)[C@@H](CO)O2)c(=O)[nH]c1=O`, in data set [1], the EC50 was 0.009 µM. Further, the selectivity ratio in data set [2] was 55600. Also, the IC50 in the data set on C8166 worked out at 500 µM.

What is called EC50 is the concentration giving half of the maximal effect. By IC50 is commonly meant the concentration at which inhibition is half-maximal.
